Literature values as cited in patent US20190336443A1 (Navinta III Inc, priority 2018, published 2019).

Columns and labels:
[1] = all animal species with adequate studies (rodents and rabbits)
[2] = pH sensitive

solubility in ethanol: slight solubility | degradation in a liquid formulation [2]: readily degraded by hydrolysis
Compound: NC(=O)c1ncn([C@@H]2O[C@H](CO)[C@@H](O)[C@H]2O)n1 [Ribavirin, 1-beta-D-ribofuranosyl-1H-1,2,4-triazole-3-carboxamide]
teratogenic and/or embryocidal potential [1]: significant teratogenic and/or embryocidal potential
